In US12559474B2, “Triazine derivatives having virus replication inhibitory activity and pharmaceutical composition comprising the same” (priority 2021, dated 2026):
Where two headings read alike, the source gives them in different places.

Assays:
[1] = tested on: SARS-CoV-2; experiment: microbe, parasite or virus in culture; format: cell-based; conditions: Severe acute respiratory syndrome coronavirus 2, VeroE6/TMPRSS2, 72 h, 50% SARS-CoV-2 infected cell death inhibitory concentration, VeroE6/TMPRSS2 cells, 3 days culture
[2] = molecular target: SARS-CoV-2 3CL protease (Severe acute respiratory syndrome coronavirus 2, UniProt P0DTD1); experiment: biochemical; conditions: 50% SARS-CoV-2 3CL protease inhibitory concentration, read-out: IC50

Structure (SMILES)	EC50 ([1]; class symbols) [µM]	IC50 ([2]; given as class symbols) [µM]	EC50 ([1]; CellTiter-Glo 2.0) [µM]	IC50 ([2]; RapidFire MS) [µM]
COc1ccc(Nc2nc(=O)n(Cc3ccc[nH]c3=O)c(=O)n2Cc2cc(F)c(F)c(Cl)c2)cc1 [Compound I-0254]	1 to 10	< 0.1		
Cn1cc2cc(Nc3nc(=O)n(Cc4cc5ccsc5[nH]c4=O)c(=O)n3Cc3cc(F)c(F)c(F)c3)c(Cl)cc2n1 [Compound I-0110]			0.321	0.0042
Cc1cncc(-n2c(=O)nc(Nc3cc4sc(NC(C)C)nc4cc3Cl)n(Cc3ccc(F)c(C#N)c3)c2=O)c1 [II-0035]	< 1	< 0.1		
CNc1nc2cc(Cl)c(Nc3nc(=O)n(-c4cncc(Cl)c4)c(=O)n3Cc3cc(C#N)ccc3C)cc2o1 [II-0546]	< 1	< 0.1		
CNc1cncc(-n2c(=O)nc(Nc3cc4cn(C)nc4cc3Cl)n(Cc3cc(F)c(F)c(F)c3)c2=O)c1 [II-0602]	< 1	< 0.1		
Cc1cncc(-n2c(=O)nc(N(C)c3cc4cn(C)nc4cc3Cl)n(Cc3cc(F)c(F)c(F)c3)c2=O)c1 [II-0483]			20.9	1.8
Cc1cncc(-n2c(=O)nc(NC3CCC3)n(Cc3cc(F)c(F)c(F)c3)c2=O)c1 [II-0227]	< 1			0.63
COc1ccc(Nc2nc(=O)n(Cc3ncn(C)n3)c(=O)n2Cc2cc(F)c(F)c(F)c2)cc1 [Compound I-0335]	1 to 10	0.1 to 1		
COc1ccc(Nc2nc(=O)n(Cc3ccc[nH]c3=O)c(=O)n2Cc2cc(Cl)c(F)c(Cl)c2)cc1 [Compound I-0227]	1 to 10	< 0.1		
O=c1[nH]cccc1Cn1c(=O)nc(NC23CC(Nc4ncc(F)cn4)(C2)C3)n(Cc2cc(F)c(F)c(F)c2)c1=O [II-0460]			19	0.022
Cc1nc2ccc(Nc3nc(=O)n(-c4cncc5ccccc45)c(=O)n3Cc3ccc(F)c(C#N)c3)cc2s1 [II-0198]	< 1	< 0.1		
CNc1nc2cc(Cl)c(Nc3nc(=O)n(Cc4ncn(C)n4)c(=O)n3Cc3cc(F)c(F)c(F)c3)cc2o1 [II-0061]	1 to 10	< 0.1		
N#CCn1cc2cc(Nc3nc(=O)n(Cc4ccc[nH]c4=O)c(=O)n3Cc3cc(F)c(F)c(F)c3)c(Cl)cc2n1 [II-0507]	1 to 10	< 0.1		
Cn1cc2cc(Nc3nc(=O)n(-c4cncc(C#N)c4)c(=O)n3Cc3cc(Cl)c(F)cc3F)c(Cl)cc2n1 [II-0485]	< 1	< 0.1		
COc1ccc(Nc2nc(=O)n(Cc3ccc[nH]c3=O)c(=O)n2Cc2cc(F)c(F)cc2Cl)cc1 [Compound I-0194]	1 to 10	< 0.1		
CCc1nc2cc(Cl)c(Nc3nc(=O)n(Cc4ncn(C)n4)c(=O)n3Cc3cc(Cl)c(F)cc3F)cc2s1 [II-0260]	< 1	< 0.1		
O=c1nc(Nc2cc3c(cc2Cl)nc2n3CCN2)n(Cc2cc(Cl)c(F)cc2F)c(=O)n1-c1cncc(Cl)c1 [II-0349]	1 to 10	< 0.1		
CNc1nc2cc(Cl)c(Nc3nc(=O)n(Cc4ncn(C)n4)c(=O)n3Cc3cc(F)c(F)c(Cl)c3)cc2o1 [II-0059]	1 to 10	< 0.1		
COc1cc(F)c(F)cc1Cn1c(Nc2cc3cn(C)nc3cc2Cl)nc(=O)n(-c2cncc(C)c2)c1=O [II-0520]	1 to 10	< 0.1		

Structure (SMILES)	EC50 ([1]; class symbols) [µM]	IC50 ([2]; given as class symbols) [µM]	EC50 ([1]; CellTiter-Glo 2.0) [µM]	IC50 ([2]; RapidFire MS) [µM]
Cc1cncc(-n2c(=O)nc(Nc3cc4cn(CCO)nc4cc3Cl)n(Cc3cc(F)c(F)cc3F)c2=O)c1 [II-0337]	< 1	< 0.1		
COc1ccc(Nc2nc(=O)n(Cc3cc4cc(OC)ccc4[nH]c3=O)c(=O)n2Cc2cc(F)c(F)c(F)c2)cc1 [Compound I-0100]	1 to 10	< 0.1		
Cc1c2cc(Nc3nc(=O)n(Cc4ncn(C)n4)c(=O)n3Cc3cc(Cl)c(F)cc3F)c(Cl)cc2nn1C [II-0437]	< 1	< 0.1		
Cc1ccc(Cl)cc1Cn1c(Nc2cc3cn(C)nc3cc2Cl)nc(=O)n(Cc2ncn(C)n2)c1=O [II-0052]	1 to 10	< 0.1		
Cn1cc2cc(Nc3nc(=O)n(Cc4cc(Cl)c[nH]c4=O)c(=O)n3Cc3ccc(F)c(C#N)c3)c(Cl)cc2n1 [Compound I-0359]	1 to 10	< 0.1		
O=C1CCC(Nc2nc(=O)n(Cc3ccc[nH]c3=O)c(=O)n2Cc2cc(F)c(F)c(F)c2)CN1 (racemic) [Compound I-0133]	< 1	1 to 10		3.4
COCCCc1c2cc(Nc3nc(=O)n(Cc4ccc[nH]c4=O)c(=O)n3Cc3cc(F)c(F)c(F)c3)c(Cl)cc2nn1C [Compound I-0365]	1 to 10	< 0.1		
Cn1cnc(Cn2c(=O)nc(Nc3cc4cn(CC(C)(C)O)nc4cc3Cl)n(Cc3cc(Cl)c(F)cc3F)c2=O)n1 [II-0302]	1 to 10	< 0.1		
Cc1nc2cc(Br)c(Nc3nc(=O)n(Cc4ncn(C)n4)c(=O)n3Cc3cc(F)c(F)cc3F)cc2s1 [II-0417]	1 to 10	< 0.1		
Cc1cncc(-n2c(=O)nc(Nc3cc4cn(C)nc4cc3Cl)n(Cc3cc(C#N)ccc3CF)c2=O)c1 [II-0334]			0.62	0.0028
Cn1cnc(Cn2c(=O)nc(Nc3cc4cn(CC(=O)OC(C)(C)C)nc4cc3Cl)n(Cc3cc(Cl)c(F)cc3F)c2=O)n1 [II-0309]	1 to 10	< 0.1		
Cc1cncc(-n2c(=O)nc(Nc3cc4c(cc3Cl)nc(N(C)C)n4C)n(Cc3cc(F)c(F)c(F)c3)c2=O)c1 [II-0478]	1 to 10	< 0.1		
Cc1cncc(-n2c(=O)nc(Nc3cc4cn(C)nc4cc3Cl)n(Cc3ccc(F)c(Br)c3)c2=O)c1 [II-0597]	< 1	< 0.1		
CC(C)Nc1nc2cc(Cl)c(Nc3nc(=O)n(Cc4ncn(C)n4)c(=O)n3Cc3cc(F)c(F)cc3F)cc2s1 [II-0037]	1 to 10	< 0.1		
O=c1[nH]cc(Cn2c(=O)nc(Nc3cc4c(cc3Cl)OCC4)n(Cc3cc(F)c(F)c(F)c3)c2=O)c(=O)[nH]1 [Compound I-0406]	1 to 10	< 0.1		
O=c1nc(Nc2cc3cn(CCO)nc3cc2Cl)n(Cc2cc(Cl)c(F)cc2F)c(=O)n1Cc1ncccn1 [II-0238]	1 to 10	< 0.1		
Cc1cncc(-n2c(=O)nc(Nc3cc4sc(C)nc4cc3Cl)n(Cc3ccc(F)c(C#N)c3)c2=O)c1 [II-0193]	1 to 10	< 0.1		
Cn1cnc(Cn2c(=O)nc(Nc3cc4oc(N)nc4cc3Cl)n(Cc3cc(Cl)c(F)cc3F)c2=O)n1 [II-0056]	1 to 10	< 0.1		
Cc1cncc(-n2c(=O)nc(Nc3cc4c(cc3F)nc(C)n4C)n(Cc3cc(F)c(F)c(F)c3)c2=O)c1 [II-0360]	1 to 10	< 0.1		

Structure (SMILES)	EC50 ([1]; class symbols) [µM]	IC50 ([2]; given as class symbols) [µM]	EC50 ([1]; CellTiter-Glo 2.0) [µM]	IC50 ([2]; RapidFire MS) [µM]
O=c1[nH]cccc1Cn1c(=O)nc(Nc2cc3cn(C4COC4)nc3cc2Cl)n(Cc2cc(F)c(F)c(F)c2)c1=O [Compound I-0382]	1 to 10	< 0.1		
C#Cc1cc(F)c(F)cc1Cn1c(Nc2cc3cn(C)nc3cc2Cl)nc(=O)n(-c2cncc(C)c2)c1=O [II-0065]	< 1	< 0.1		
CCNc1nc2cc(Cl)c(Nc3nc(=O)n(-c4cncc(C)c4)c(=O)n3Cc3ccc(F)c(C#N)c3)cc2s1 [II-0336]	< 1	< 0.1		
Cc1cncc(-n2c(=O)nc(Nc3ccc4ncccc4c3)n(Cc3ccc(F)c(C#N)c3)c2=O)c1 [II-0204]	1 to 10	< 0.1		
Cc1cncc(-n2c(=O)nc(Nc3cc4cn(C)nc4cc3Cl)n(Cc3cc(C#N)ccc3Cc3cccc(F)c3)c2=O)c1 [II-0027]	< 1	< 0.1		
CNc1nc2ccc(Nc3nc(=O)n(-c4cncc(Cl)c4)c(=O)n3Cc3cc(F)c(F)c(C#N)c3)cc2s1 [II-0387]	< 1	< 0.1		
CNC(=O)Cn1cc2cc(Nc3nc(=O)n(-c4cncc5ccccc45)c(=O)n3Cc3cc(F)c(F)c(F)c3)c(Cl)cc2n1 [II-0509]	1 to 10	< 0.1		
Cc1cncc(-n2c(=O)nc(Nc3cc4cn(CC(F)F)nc4cc3Cl)n(Cc3cc(Cl)c(F)cn3)c2=O)c1 [II-0586]	< 1	< 0.1		
COc1ccc(Nc2nc(=O)n(Cc3cc(C)n[nH]c3=O)c(=O)n2Cc2cc(F)c(F)c(F)c2)c(Cl)c1 [II-0084]	< 1	< 0.1		
Cn1cc2cc(Nc3nc(=O)n(Cc4ccc[nH]c4=O)c(=O)n3Cc3cc(F)c(F)c(C#N)c3)c(Cl)cc2n1 [Compound I-0012]	1 to 10	< 0.1		
Cc1cncc(-n2c(=O)nc(Nc3cc4cn(C)nc4cc3Cl)n(Cc3cccc(F)c3Cl)c2=O)c1 [II-0188]	< 1	< 0.1		
CNc1nc2ccc(Nc3nc(=O)n(Cc4ccc[nH]c4=O)c(=O)n3Cc3cc(F)c(F)c(F)c3)cc2s1 [Compound I-0460]	1 to 10	< 0.1		
Cn1cnc(Cn2c(=O)nc(Nc3cc4cn(CC(F)F)nc4cc3Cl)n(Cc3cc(F)c(F)c(Cl)c3)c2=O)n1 [II-0572]			0.925	0.0056
Cn1cnc(Cn2c(=O)nc(Nc3cc4cn(C)nc4cc3Cl)n(Cc3cc(Cl)ccc3Cl)c2=O)n1 [II-0591]	< 1	< 0.1		
CCn1cc2cc(Nc3nc(=O)n(-c4cncc(Cl)c4)c(=O)n3Cc3cc(C#N)ccc3Cl)ccc2n1 [II-0036]			0.355	0.0083
CNc1nc2cc(F)c(Nc3nc(=O)n(-c4cncc(C)c4)c(=O)n3Cc3cc(F)c(F)cc3F)cc2s1 [II-0501]	< 1	< 0.1		
COc1ccnc(Cn2c(=O)nc(Nc3cc4cn(C)nc4cc3Cl)n(Cc3cc(F)c(F)cc3F)c2=O)c1 [II-0252]	1 to 10	< 0.1		
Cn1cc2cc(Nc3nc(=O)n(-c4cncc5c4COC5)c(=O)n3Cc3cc(F)c(F)c(F)c3)c(Cl)cc2n1 [II-0503]	1 to 10	< 0.1		
Cc1cncc(-n2c(=O)nc(Nc3cc4c(cc3F)nc(C)n4C)n(Cc3ccc(F)c(C#N)c3)c2=O)c1 [II-0353]	1 to 10	< 0.1		
